Measurements as given in US20060148104A1, “Detection of ion channel or receptor activity” (Massachusetts Institute of Technology, priority 2004, published 2006).
Entries after “also recorded” stand apart in the source; their conditions may differ. Ends that are not written are not given here.

Assays:
TRPV3-EGFP = assay: whole-cell patch clamp recordings, HEK293T cells transiently transfected with TRPV3-EGFP; type: cell-based, Mouse; conditions: 100 μM 2APB
From the text: (§1) Cloning of TRPV3, TRPV1 and P2X2 into the EGFP-cc and EGFP-barstar vectors. The multiple cloning site (MCS) 3′ of the EGFP-C1 vector is not affected by the heptad repeat or barstar insertion described above, i.e., the restriction sites at the 3 prime end of EGFP are identical to the original EGFP-C1 clone. This MCS was used to clone each of three different ion channel subunits in-frame with the EGFP-heptad repeat module or EGFP-barstar module that had been inserted into the EGFP-C1 vector. Mouse TRPV3 cDNA was amplified either from total mouse cDNA or from plasmids containing the appropriate subunit sequence by PCR using the following primers: […]
(§2) Transient transfection of COS and HEK cells. COS or HEK cells were transfected using Lipofectamine 2000 (Invitrogen) according to the manufacture's protocol. In brief, 2 μg of the respective DNA plasmid were incubated for 30 min with 6 μl of Lipofectamine in 200 μl of Optimem medium (Gibco) at room temperature. Cells were incubated with the DNA-Lipofectamine complex for 3 h at 37 degrees Celsius in 500 μl Optimem medium. Afterwards the medium was replaced with DMEM containing 10% FCS. Cells were assayed for expression and activity of the engineered ion channels 24-48 h after transfection.
(§3) Characterization of functional activity of engineered ion channel subunits. […]

TRPV3-EGFP-cc [1] = assay: whole-cell patch clamp recordings, HEK293T cells transiently transfected with TRPV3-EGFP-cc; type: cell-based, Mouse; conditions: 100 μM 2APB
From the text: as §1, §2, §3

COS cells = assay: FRET-based calcium sensing inside living COS cells (quantum dots + Calcium Crimson); type: cell-based; conditions: 405 nm laser; COS cells with internalized quantum dots and Calcium Crimson
Experimental: Quantum dot nanoparticles with an absorption peak at ˜405 nm and an emission peak at ˜580 nm (“Birch Yellow, Type 2”, Evident Corp.) were internalized by COS cells that had been previously loaded with a calcium-sensitive dye with absorption ˜580 nm, emission ˜620 nm (Calcium Crimson; Invitrogen N. C-3018). Dye loading was performed according to the directions of the manufacturer, and electroporation was used to enhance nanoparticle uptake. Live cells were illuminated with a 405 nm laser and emission from the sample was collected through a narrow bandgap filter centered around 620 nm. […] Since the calcium-sensitive dye cannot be excited by the 405 nm laser, their activation is due to FRET from the nanoparticles. The image is a snapshot from a movie taken at mid-plane section of a cell via confocal microscopy.

[2] = molecular target: complementary peptides EIAALEK-EIAALEK-EIAALEK / KIAALKE-KIAALKE-KIAALKE; conditions: heterodimer (78); read-out: dissociation constant; cited from earlier work
EGFP-cc = assay: pull-down of EGFP-cc from cell lysate by functionalized nanoparticles, Western blot; type: binding; conditions: for pull-down / binding of EGFP-cc: lysate of cells expressing EGFP-cc, anti-EGFP Western blot
From the text: Nanoparticle synthesis and conjugation. Dye-doped silica nanoparticles containing the fluorescent dye tris (2,2′-bipyridine) dichlororuthenium (II) hexahydrate) (Ru(bpy)) were synthesized following the reverse microemulsion procedure described by Tan and coworkers (35). These particles are approximately 40 nm in diameter and can be dispersed in de-ionized water. To impart biocompatibility (stability in PBS and other physiological buffers), particles were coated with bovine serum albumin (BSA) by mixing the nanoparticles in aqueous solution with an equal volume of freshly prepared BSA solution (1% weight in water). The mixture was incubated at room temperature for 1 h, after which it was brought to a standard PBS concentration by addition of an appropriate amount of concentrated PBS solution (10× PBS) and left standing overnight at room temperature. Excess BSA was then removed by repeated cycles of centrifugation (12 min at 9,500 rpm), removal of the supernatant and resuspension in PBS (a step involving bath sonication for a few minutes).
Conjugation of the nanoparticles to the recognition domain peptide CGG-(KVSALKE)3, (SEQ ID NO: 44) which contains a three amino acid spacer (CGG) followed by three copies of the KVSALKE (SEQ ID NO: 1) heptad sequence (cc, custom synthesized by the MIT biopolymer lab) was achieved using commercial crosslinking chemistry. Amine groups on the surface of BSA-coated nanoparticles (there are 35 lysine groups accessible at the surface of each BSA molecule) were activated by transferring the nanoparticles to a solution of 10 μM or 100 μM freshly prepared MBS (an amine-to-thiol crosslinker, available from Pierce Biotechnology) in PBS. After 20 min incubation, nanoparticles were washed by centrifugation and resuspension in a conjugation buffer (PBS at pH 7 and 1 mM EDTA). Since the recognition peptide contains a cysteine (chosen for conjugation), reduction of possible disulfide bonds was performed (using TCEP reducing gel, Pierce Biotechnology) before addition to the activated nanoparticles. Conjugation was completed by adding the reduced peptide at a concentration of 10 μM or 100 μM to nanoparticles activated with MBS at the same respective concentrations. After peptide addition, nanoparticles were incubated overnight in a gently rotating tube at 4° C., after which they were washed 3 times in PBS.
HEK 293T cells were transiently transfected with a construct encoding either EGFP or the EGFP-cc construct containing (EVSALEK)4 (SEQ ID NO: 4) fused to the N-terminus of EGFP as described in Example 6. 2×10^6 cells were lysed in 200 μl Lysis buffer (PBS, pH7.4 with 1% Triton-X100) and afterwards diluted with 800 μl PBS to obtain 1 ml of cell lysate with 0.2% Triton-X100. Pull-down experiments were performed by incubating 100 μL of nanoparticles with 900 μL of cell lysate for one hour at 4° C. (with gentle rotation). Particles were then centrifuged (12 min at 9,500 rpm) and the supernatant removed. After brief washing of the pellet with 100 μL of PBS, particles were resuspended by sonication in 50 μL of PBS and the resulting solution analyzed by Western blot using antibodies to EGFP (Covance) according to standard methods.

TRPV3-EGFP-cc [3] = assay: pull-down of engineered ion channel subunit TRPV3-EGFP-cc from cell lysate by functionalized nanoparticles, Western blot; type: binding, Mouse
Experimental: Nanoparticle synthesis and conjugation. These were performed as described in the previous example.
Pull-down experiments. These were performed essentially as described in the previous example except that (i) two different ratios of peptides/nanoparticle (10 μM or 100 μM peptide) were used to test their effect on binding ability; and (ii) lysates were made from cells that expressed engineered ion channel subunits TRPV3-EGFP-cc and TRPV3-EGFP, which are described in Example 6.

## NCCOB(c1ccccc1)c1ccccc1 [2APB]
TRPV3-EGFP
  reversibility of the 2APB effect: quickly washed out
TRPV3-EGFP; voltage ramp −100 mV to +100 mV, compared with TRPV3-cc
  response of cells to application of 2APB (whole-cell current): responded similarly
TRPV3-EGFP-cc [1]
  reversibility of the 2APB effect: quickly washed out
TRPV3-EGFP-cc [1]; voltage ramp −100 mV to +100 mV, compared with TRPV3-EGFP
  response of cells to application of 2APB (whole-cell current): responded similarly

## C/C=C(/C)C(=O)O[C@H]1C(C)=C2[C@H]([C@@H]1OC(=O)CCCCCCC)[C@@](C)(OC(C)=O)C[C@H](OC(=O)CCC)[C@@]1(O)[C@H]2OC(=O)[C@@]1(C)O [thapsigargin]
COS cells
  emission at 620 nm upon addition of compound (calcium signal by FRET): flashes of light (orange dots) were detected only in the immediate vicinity of the nanoparticles

## EIAALEK-EIAALEK-EIAALEK (SEQ ID NO: 5) and KIAALKE-KIAALKE-KIAALKE (SEQ ID NO: 6) (chain 1 EIAALEKEIAALEKEIAALEK; chain 2 KIAALKEKIAALKEKIAALKE; Complementary peptides) [IAAL-E3/K3 coiled-coil]
[2]
  Kd: 70 nM

## NP-cc: BSA-coated Ru(bpy) dye-doped silica nanoparticles (~40 nm) conjugated to recognition peptide CGG-(KVSALKE)3 (SEQ ID NO: 44) (CGGKVSALKEKVSALKEKVSALKE; also: Cys crosslinked to BSA-coated Ru(bpy) dye-doped silica nanoparticles)
EGFP-cc; different amounts of CGG-(KVSALKE)3 conjugated, data not shown
  dependence of amount of EGFP-cc pulled down on amount of peptide conjugated: proportional to the number of heptad repeat peptides conjugated to the nanoparticles
EGFP-cc
  pull-down / binding of EGFP-cc: only NP-cc can pull down EGFP-cc; also recorded: confirm the binding
EGFP-cc; listed as functionalized nanoparticles
  pull-down / binding of EGFP-cc: strong band at the position expected for EGFP-cc
EGFP-cc; nanoparticles conjugated with 10 μm peptide
  pull-down of EGFP-cc: did not result in detectable pull-down
EGFP-cc; nanoparticles conjugated with 100 μm peptide
  pull-down of EGFP-cc: presence of EGFP-cc
TRPV3-EGFP-cc [3]; lysate of cells expressing TRPV3-EGFP-cc, anti-EGFP Western blot
  binding to ion channel subunit containing the complementary target domain: confirm the binding
TRPV3-EGFP-cc [3]; nanoparticles conjugated with 10 μM peptide (lane 6)
  pull-down of TRPV3-EGFP-cc: only a small amount of pull-down
